Peptide text beside a SMILES is read from it. * marks the point of attachment. NHtBu = CC(C)(C)N*
SMILES	logP
O=C1CN=C(c2ccccc2)c2cc([N+](=O)[O-])ccc2N1	2.25
O=S(=O)(Oc1ccccc1)c1ccccc1	3.06
C[C@@H]1C[C@H]2[C@@H]3CCC4=CC(=O)C=C[C@]4(C)[C@@]3(F)[C@@H](O)C[C@]2(C)[C@@]1(O)C(=O)CO	1.83
O=Cc1cccc(Oc2ccccc2)c1	3.38
COC(=O)[C@@H]1C2CCC(C[C@@H]1OC(=O)c1ccccc1)N2C (some centres undefined)	2.3
CCCN(CCC)C(=O)SCC	3.21
CC(=O)Nc1cccc(OCC(=O)O)c1	0.48
CN(C)c1ccc(C#N)cc1	2.2
CC1OC(OC2CCC3(CO)C4CCC5(C)C(C6=CC(=O)OC6)CCC5(O)C4CCC3(O)C2)C(O)C(O)C1O (centres undefined)	-0.62
CCC(Br)(CC)C(=O)NC(N)=O	1.54
CCCCCOC(=O)NC	1.96
CCS(=O)(=O)CC	-0.59
O=[N+]([O-])c1ccc(OC2OC(CO)C(OC3OC(CO)C(O)C(O)C3O)C(O)C2O)cc1 (centres undefined)	-1.39
S=C1CCCCCCN1	1
C[C@H]1C[C@H]2[C@@H]3CCC4=CC(=O)C=C[C@]4(C)[C@@]3(F)[C@@H](O)C[C@]2(C)[C@@]1(O)C(=O)CCl	2.48
NNC(=O)c1ccnc(F)c1	-0.11
CCCCCn1cnc2c(N)ncnc21	1.79
c1ccn2cccc2c1	2.49
Nc1nc2[nH]cnc2c(=O)[nH]1	-0.91
O=C(O)COc1ccc(I)cc1	2.69
O=C1NCCN1c1ncc([N+](=O)[O-])s1	0.95
C=CCN1CC[C@]23c4c5ccc(O)c4O[C@H]2[C@@H](O)C=C[C@H]3[C@H]1C5	1.86
NC1=C(Cl)C(=O)c2ccccc2C1=O	2.12

SMILES	logP
CNC(=O)Oc1ccccc1Br	1.77
Cc1nc2ccccc2[nH]1	1.43
C=CCCCCC	3.99
Nc1cccc(O)c1	0.21
CCC(C)c1ccc(OCC(=O)O)cc1 (centres undefined)	3.12
CN(C)C(N(C)C)=S(I)c1ccc(O)cc1 (centres undefined)	-0.88
O=C1c2ccccc2C(=O)c2ccccc21	3.39
O=c1[nH]c(=O)n([C@H]2C[C@H](O)[C@@H](CO)O2)cc1C(F)(F)F	-0.46
Oc1nc2ccccc2s1	1.76
O=C(O)COc1ccc(C2CCCCC2)cc1	3.79
COC(=O)c1cccc(N2C(=O)CCC2=O)c1	0.36
COC(=O)c1c[nH]c(C)c1	1.96
CCCCC1C(=O)NC(=O)NC1=O	0.77
OC[C@H]1O[C@@H](Oc2ccc(O)cc2)[C@H](O)[C@@H](O)[C@@H]1O	-1.35
O=C1CCC(c2ccccc2)(C2CCN(Cc3ccccc3)CC2)C(=O)N1 (centres undefined)	3.55
O=C(O)Cc1ccc2ccccc2c1	2.81
C[N+](C)(C)Cc1ccccc1.[Cl-]	-2.17
CC(=O)NC(Cc1ccccc1)C(N)=O (centres undefined)	-0.04
CCN=C=S	1.47
COC(=O)[C@H]1[C@H]2C[C@H]3c4[nH]c5ccccc5c4CCN3C[C@H]2CC[C@@H]1O	2.54
O=C1c2ccccc2C(=O)N1SC(Cl)(Cl)Cl	2.85
CCOC(=O)C(=Cc1cccc([N+](=O)[O-])c1)C(=O)OCC	2.71
CCOC(=O)Nc1ccccc1	2.3

SMILES	logP
CCCOc1cc(N)ccc1C(=O)O	1.53
C1=Cc2ccc3c4c(ccc(c24)C1)-c1ccccc1-3	5.78
Cc1n[nH]c(C(=O)N(C)C2CCCCC2)c1[N+](=O)[O-]	1.68
CCC(=O)O	0.33
CC(=O)OCCn1c([N+](=O)[O-])cnc1C	0.3
COC(=O)CCCC(=O)OC	0.62
CCCNc1nc(NC(C)C)nc(SC(F)F)n1	4.23
CC(=O)Nc1nccs1	0.76
O=C1CCC(=O)N1c1ccccc1F	0.22
OB(O)c1ccccc1	1.58
CC(C)Nc1nc(NC(C)C)nc(SC(F)F)n1	4.25
Cn1ccc(=O)[nH]c1=O	-1.2
O=c1nccc[nH]1	-1.62
Nc1cccc2cc3ccccc3nc12	3.26
C=CCCCCCCC	5.15
C=CCc1ccccc1OCC(O)CNC(C)C (centres undefined)	3.1
OCCOc1c(Br)cc(Br)cc1Br	3.42
O=C(Oc1ccccc1)n1c(=O)[nH]cc(F)c1=O	1.73
CSc1ccc(SC)nn1	1.85
NS(=O)(=O)c1ccc(C(=O)c2ccncc2)cc1	0.56
CN1CCN(CCCN2c3ccccc3Sc3ccc(Cl)cc32)CC1	4.88
CC(=O)Nc1ccccc1Cl	1.28
CN1CCC(CN2c3ccccc3Sc3ccccc32)C1 (centres undefined)	5.23

SMILES	logP
c1ccc(Nc2cccc3ccccc23)cc1	4.2
Cc1cc2ccccc2cc1C	4.4
O=C(O)Cc1ccc(F)cc1	1.55
CON(C)C(=O)Nc1ccc2c(c1)Cc1ccccc1-2	3.67
CC(C)=CC1C(C(=O)OCN2C(=O)C3=C(CCCC3)C2=O)C1(C)C (centres undefined)	4.73
Cc1cccc(C)c1[N+](=O)[O-]	2.95
O=C(O)c1cccc([N+](=O)[O-])c1C(=O)O	0.75
Cc1cc(C)[nH]n1	1.01
COc1ccc2c(c1)N(CCCN(C)C)c1ccccc1S2	4.9
Cc1cc(C(=O)NNCc2ccccc2)no1	1.49
Brc1cnc2ccccc2c1	3.03
NC1C2CCC1c1ccccc12 (centres undefined)	2.13
Nc1ccccn1	0.48
CNC(=O)c1[nH]nc(C)c1[N+](=O)[O-]	-0.23
CCOC(=O)C(=Cc1ccccc1)C(C)=O	2.21
Ic1cn[nH]c1	1.7
N#CC(Cl)(Cl)Cl	2.09
O=C(c1ccccc1)c1cccc(NS(=O)(=O)C(F)F)c1	2.86
S=C=Nc1ccc(-c2ccccc2)cc1	4.66
O=C1C=CC(=NBr)C=C1	1.12
CCC(=O)OCC(=O)C1(O)CCC2C3CCC4=CC(=O)CCC4(C)C3C(O)CC21C (centres undefined)	2.8
NC(=O)CCCc1ccccn1	-0.01
CNC(=S)NCCSCc1c[nH]cn1	0.16

SMILES	logP
COc1cc2c(cc1OC)[C@@]13CCN4CC5=CCO[C@H]6CC(=O)N2[C@H]1[C@H]6[C@H]5C[C@H]43	0.98
CC(=O)NC(C)C(=O)NC(Cc1ccccc1)C(=O)NC(C)C(=O)NC(C)(C)C (stereo not drawn) (Ac-Ala-Phe-Ala-NHtBu; configuration not given here)	1.01
CC1(O)CCC2C3CCC4=CC(=O)CCC4(C)C3(F)C(O)CC21C (centres undefined)	2.38
Nc1cccc2cccnc12	1.79
Oc1nc2ccccc2[nH]1	1.12
CC(=O)OCCc1ccccc1	2.3
CC(N)=S	-0.26
O=C(O)COc1cccc(-c2ccccc2)c1	3.18
C[C@]1(O)CC[C@H]2[C@@H]3CCC4=CC(=O)CC[C@@H]4[C@H]3CC[C@@]21C	2.99
O=c1c(O)c(-c2ccc(O)cc2O)oc2cc(O)cc(O)c12	1.54
O=[N+]([O-])c1ccccc1O	1.79
N#CCc1ccccc1	1.56
CCc1ccccc1-c1nc(N)nc(N)n1	1.65
CN(CC(O)COc1ccccc1)CC(O)COc1ccccc1 (centres undefined)	2.92
CN(C)C(N(C)C)=S(I)c1ccccc1Cl (centres undefined)	-0.19
COC(=O)CCCO	-0.06
c1ccc2cc3ccccc3cc2c1	4.45
CC(=O)c1ccc(NC=O)cc1	0.94
N#Cc1cc(-c2ccccc2)nnc1NCCN1CCOCC1	1.89
CCCCCC1(c2ccncc2)CCC(=O)NC1=O (centres undefined)	2.26
COc1cc(Cl)cc(Cl)c1	3.8
CC(C)(C)C1Nc2cc(Cl)c(S(N)(=O)=O)cc2S(=O)(=O)N1 (centres undefined)	0.36
C=C1C[C@]23C[C@@]1(O)CC[C@H]2[C@@]12C=C[C@H](O)[C@@](C)(C(=O)O1)[C@H]2[C@@H]3C(=O)O	0.24

SMILES	logP
O=C1C(=O)c2cccc3cccc1c23	1.95
O=C(NO)c1ccccc1	0.26
O=[N+]([O-])c1ccc2nc(C(F)(F)F)[nH]c2c1	2.68
CC1=C(O)OC2CC(C)C3C=CC(=O)C3(C)C(O)C12 (centres undefined)	1.13
COc1cc2c(c3c1c(=O)c1ccccc1n3C)C=CC(C)(C)O2	3.67
CC(C)NC(=O)NO	0.2
O=[N+]([O-])c1ccc(Br)cc1	2.55
C[Si](C)(C)c1ccc(O)cc1	3.84
Cc1ncc([N+](=O)[O-])n1CCNC(=O)OCc1ccccc1	1.69
CCN(CC)C(=O)N(C)N=O	1.11
NCc1cc(O)no1	-2.39
CCOP(=S)(OCC)SCSP(=S)(OCC)OCC	5.07
Nc1ccccc1	0.9
CN(C)N=Nc1ccccc1C(N)=O	1.73
CCCCCCc1ccc(O)cc1O	3.45
COC(=O)c1ccc(-c2ncc([N+](=O)[O-])n2C)cc1	1.63
Sc1ccccc1	2.52
OCCCCc1ccccn1	0.86
CC(C)C(C)O (centres undefined)	1.28
CCOC(=O)C(=Cc1cccc(Cl)c1)C(C)=O	2.97
COc1ccc(C=C(C(C)=O)C(C)=O)cc1	1.73
NCc1ccco1	0.37
CC(O)CN (centres undefined)	-0.96

SMILES	logP
Nc1ccccc1I	2.32
CNC(=O)Oc1ccc(SC)c(C)c1	2.47
CCCCNc1ccccc1	3.58
CN(C)c1nc(N(C)C)nc(N(C)C)n1	2.73
COc1ccccc1C(=O)NCCN(C)C	1.14
CCCCCCCCCCCCCC[n+]1ccccc1.[Br-]	1.32
CCCN1CCCC[C@H]1C(=O)Nc1c(C)cccc1C	2.9
O=[N+]([O-])c1ccccc1SSc1ccccc1[N+](=O)[O-]	3.37
O=C(c1ccccc1)C(F)(F)F	2.15
CC(=O)OC(OC(C)=O)c1ccccc1	1.62
CCCCCCCCCC1(c2ccncc2)CCC(=O)NC1=O (centres undefined)	4.64
O=Cc1cccs1	1.02
CCN(CC)CCNC(=O)c1ccc(N)cc1	0.88
CN(C)C(=O)OCc1ccc(OCc2ccccc2)cc1	3.27
CCN(N=O)C(=O)N(C)C	0.71
N#Cc1ccc(OCC(=O)O)cc1	0.93
COc1ccc2[nH]ccc2c1	2.06
O=C1C=CC(=O)c2ccccc21	1.71
O=C(O)CSc1ccccc1	1.88
Cc1cccs1	2.33
CON(C)/N=N/c1ccc(C(N)=O)cc1	1.19
